Experiments:
[1] = TNS fluorescence titration for ionizable lipid pKa in liposomal bilayers; conditions: aminolipid incorporated into liposomes; for % Charged at pH 7.5: from TNS fluorescence titrations
[2] = Lipid-mixing fusion assay (RET fluorescent probe dilution), EPC/DOPE/Chol liposomes; conditions: for fusogenic capacity (fusion rate): 5 mole % of each aminolipid in EPC/DOPE/Chol (35:20:45) liposomes, Figure 9, in words
Experimental: (§1) Fusion was monitored by the decrease in resonance energy transfer (RET) resulting from fluorescent probe dilution, as described by Struck et al. (1981). […] The external buffer was 20 mM HEPES (150 mM NaCl, pH 7.5). […] Labeled and unlabeled liposomes were mixed in a 1:3 ratio, and diluted to 0.2 mM total lipid. External buffer was exchanged for 300 mM sucrose, 1 mM citrate, pH 4.0, on Sephadex G-25 columns before diluting preparations to 10 mM lipid. For fusion assays, 20 µl of fluorescently labeled liposomes, and 60 µl unlabeled liposomes, were added to 3.92 ml of 20 mM HEPES, 150 mM NaCl, pH 7.5. After 5 min. of incubation at room temperature, a 3 ml aliquot was added to a cuvette, and the fluorescence was monitored over 5 minutes. Excitation and emission wavelengths were 465 and 535 nm, respectively, and an emission 530 nm cutoff filter was used. To dissipate the gradient and induce fusion, ammonium acetate was added to a final concentration of 100 mM at 30 seconds. The percent change in fluorescence (% F/ Fmax) was determined by assigning zero fluorescence (F0) to a trace with no ammonium acetate added and Fmax to a trace measured after adding 100 µl of 25 mM Triton X-100, so that: % ( F/ Fmax ) = 100 x ((F-F0 )/(Fmax -F0 )) [formula]
To study the effect of aminolipid structure on the fusion of EPC/Chol/DOPE liposomes (35:20:45) liposomes were prepared with 5 mole % of the indicated aminolipid (AL-1-AL-6), an internal pH 4.0, 300 mM sodium citrate buffer, and an external 20 mM HEPES buffer (150 mM NaCl, pH 7.5). Fusion assays were carried out as described above.
(§2) Membrane fusion was monitored by a loss in RET between the fluorescently labeled lipids NBD-PE and Rh-PE. When liposomes containing both of these labels fuse with unlabeled liposomes, the resulting dilution of the fluorescent probes gives Increased fluorescence for NBD-PE.

[3] = Lipid-mixing fusion assay (RET fluorescent probe dilution), EPC/Chol liposomes; conditions: plateau after dissipation of the pH gradient with 100 mM ammonium acetate, complete mixing would give 80%
Experimental: as §1, with “To dissipate the gradient and induce fusion, ammonium acetate was added to a final concentration of 100 mM at 30 seconds.” left out, “[formula] […]” for “[formula]”
as §2

[4] = Lipid asymmetry (transbilayer distribution) by TNS fluorescence; format: physicochemical; conditions: 10 mole % in EPC/Chol (55:45), internal pH 4, external pH 7.5; after four minutes

Row | SMILES | fraction of neutral species at pH 7.5 [1] [%] | % Charged at pH 7.5 [1] [%] | fusogenic capacity (fusion rate) [2] | ΔF/ΔFmax ([3]; 10 mole % AL-1 in EPC/Chol (55:45)) [%] | ΔF/ΔFmax ([3]; 20 mole % AL-1 in EPC/Chol (55:45)) [%] | aminolipid moved to the inner monolayer [4] | ΔF/ΔFmax ([2]; 10 mole % AL-1 in EPC/DOPE/Chol (30:25:45), over 5 minutes after dissipation of the pH gradient) [%] | ΔF/ΔFmax ([2]; 10 mole % AL-1 in EPC/DOPE/Chol (35:20:45), after 5 minutes) | ΔF/ΔFmax ([2]; about 5 mole % AL-1 in EPC/DOPE/Chol (35:20:45), over the first 5 minutes after dissipation of the pH gradient)
1 | CCCCCCCC/C=C\CCCCCCCC(=O)OCC(CN(C)C)OC(C)=O (racemic) [AL-3] | 16 | 16 | substantially greater fusion rate | – | – | – | – | – | –
2 | CCCCCCCCCC(=O)OCC(CN(C)C)OC(=O)CCCCCCCCC (racemic) [AL-6, ±-1,2-didecanoyl-1-N,N-dimethylamino propane] | – | 17 | only limited mixing | – | – | – | – | – | –
3 | CCCCCCCC/C=C\CCCCCCCC(=O)OCC(CN(C)C)OC(=O)CCCCCCCCC (racemic) [AL-5] | – | 14 | further increases in the fusion rate | – | – | – | – | – | –
4 | CCCCCCCC/C=C\CCCCCCCC(=O)OCC(CN(C)C)OC(=O)CCCCCCC/C=C\CCCCCCCC (racemic) [AL-1, 1-N,N-dimethylamino dioleoyl propane] | 11 | 11 | – | ~3 | ~3 | virtually all | ~10 | over 5% | greater than 10%
5 | CCCCCCCC/C=C\CCCCCCCC(=O)OCC(CN(C)C)OC(=O)CCC (racemic) [AL-4] | – | 13 | further increases in the fusion rate | – | – | – | – | – | –
6 | CCCCCCCC/C=C\CCCCCCCC(=O)OCC(O)CN(C)C (racemic) [AL-2, ±-1-oleoyl-2-hydroxy-3-N,N-dimethylamino propane] | – | 54 | little Increase in liposome fusion | – | – | – | – | – | –

From patent EP0758883B1, “FUSOGENIC LIPOSOMES AND METHODS OF MAKING AND USING SAME” (THE LIPOSOME COMPANY, INC., priority 1994, dated 1995)
